Key:
[1] = system: stromal cells prepared from the femoral bone marrow of a normal rat; experiment: Osteogenesis-promoting action: alkaline phosphatase activity in rat bone marrow stromal cells; assay type: cell-based; details: 10 to 14 days cultivation, mean ±SE, control 113.7 ± 8.1
Description: Using stromal cells prepared from the femoral bone marrow of a normal rat, alkaline phosphatase activity was determined as an index of osteogenesis. Specifically, stromal cells, prepared from the femoral bone marrow of a 7-week-old male Sprague-Dawley rat by the method of Maniatopoulos et al. [Cell Tissue Research, Vol. 254, p. 317 (1988)], were cultured in an α-MEM (minimum essential medium) solution containing both dexamethasone (10^−7 M) and β-glycerophosphoric acid (10^−2 M) to obtain mineralized bone-like tissue. One week later, the test compound (10^−6 M or 10^−5 M) was added to the confluent cells, followed by 10 to 14 more days of cultivation in the above culture broth. After washing with phosphate buffer, the cells were homogenized with 0.2% Nonidet P-40 and centrifuged at 3,000 rpm for 10 minutes. The resulting supernatant was assayed for alkaline phosphatase activity by the method of Lowry et al. [Journal of Biological Chemistry, Vol. 207, p. 19 (1954)]. The values obtained are given in mean ±SE in Table 1. The data were statistically analyzed by Student's t-test.

COP(=O)(Cc1ccc(NC(=O)[C@H]2Cc3cc4c(cc3C(=O)[C@H](C)S2)OCO4)cc1)OC
melting point: 198 to 199 °C

CCOP(=O)(Cc1ccc(NC(=O)[C@@H]2Cc3cc4c(cc3C(=O)[C@@H](C)S2)OCO4)cc1)OCC
melting point: 183 to 184 °C

CCOP(=O)(Cc1ccc(NC(=O)[C@H]2Cc3cc4c(cc3C(=O)[C@H](C)S2)OCO4)cc1)OCC [Example 1, (2R,4S)-(−)-N-[4-(Diethoxyphosphorylmethyl)phenyl]-1,2,4,5-tetrahydro-4-methyl-7,8-methylenedioxy-5-oxo-3-benzothiepin-2-carboxamide]
Alkaline Phosphatase Activity ([1]; test compound 10^−5 M): 1635.5 ± 169.7 nmol p-nitrophenol/min/well
Alkaline Phosphatase Activity ([1]; test compound 10^−6 M): 682.5 ± 123.2 nmol p-nitrophenol/min/well
